Columns and labels:
[1] = tested on: AML cell lines (MOLM13 and OCI-AML3); test: MTS cell proliferation assay, AML cell lines; assay type: cell-based; conditions: range over the two AML cell lines, one study; read-out: growth arrest in AML cell lines, IC50 range
Protocol: (§1) MTS assay for cell growth/viability: Mitochondrial activity was measured to determine cell proliferation using an MTS assay ([…]). Metabolically active cells convert MTS tetrazolium salt into a purple formazan product that is soluble in tissue culture medium. The amount of formazan measured at 490 nm absorbance is proportional to the number of proliferating cells. MTS assays in AML cell lines were carried out with 20K cells plated per well in 96-well plates with Cpd3 or brequinar in a dose series ranging from 0.0001 to 10 μM. Triplicate wells were set up for each condition. At 96 hours, the MTS reagent was added and after approximately 4 hours the plates were read in a spectrophotometer.
(§2) Biological Activity: Cell proliferation assays were carried out using the MTS assay described herein using two AML cell lines (i.e., MOLM13 and OCI-AML3) with varied genetic backgrounds. The assays were carried out in a blinded fashion.

[2] = tested on: MOLM13 cell line; test: MTS assay for cell growth/viability, MOLM13; assay type: cell-based; conditions: Homo sapiens
Protocol: as §1, with “MTS assays in AML cell lines were carried out with 20K cells plated per well in 96-well plates with Cpd3 or brequinar in a dose series ranging from 0.0001 to 10 μM.” left out
as §2

[3] = tested on: OCI-AML3 cell line; test: MTS assay for cell growth/viability, OCI-AML3; assay type: cell-based; conditions: Homo sapiens, OCI-AML-3, 96 hours, Table 2 (one study)
Protocol: as §1, §2

[4] = biological target: T1, h-DHODH (Homo sapiens, UniProt Q02127); test: DHODH enzymatic assay (DCIP reduction); assay type: biochemical; conditions: recombinant human enzyme, 25° C., pH 8.0
T1 construct: made in house
T1 sequence (Q02127 whole entry): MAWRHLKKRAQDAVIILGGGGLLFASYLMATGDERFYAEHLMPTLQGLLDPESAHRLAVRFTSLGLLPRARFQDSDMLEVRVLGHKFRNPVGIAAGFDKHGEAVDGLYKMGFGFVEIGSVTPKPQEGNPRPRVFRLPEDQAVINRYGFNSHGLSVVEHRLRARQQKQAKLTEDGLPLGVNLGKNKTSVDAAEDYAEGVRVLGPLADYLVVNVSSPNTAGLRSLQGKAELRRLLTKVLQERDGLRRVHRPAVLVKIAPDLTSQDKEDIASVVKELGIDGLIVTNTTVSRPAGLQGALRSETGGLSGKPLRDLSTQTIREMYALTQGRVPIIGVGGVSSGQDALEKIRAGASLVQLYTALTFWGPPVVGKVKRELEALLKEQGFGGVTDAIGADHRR
Protocol: DHODH Enzymatic Assay: DHODH activity was determined at 25° C. following the reduction of 2,6-dichloroindophenol sodium salt (DCIP) at 600 nm (ε=18 800 M^−1 cm^−1) on a spectrophotometer. The reaction medium used contained 50 mM Tris-HCl, pH 8.0, 0.1% Triton X-100, 0.1 mM LDHO, 0.025 mM CoQ1, and 0.06 mM DCIP. The reaction was started by addition of the enzyme. The inhibitory potency of the compounds was evaluated by measuring the initial velocity of the reaction either in the absence or in the presence of the compounds at the indicated concentrations. The DHODH enzyme used was the recombinant human enzyme prepared as previously described (Helene Munier-Lehmann, et al., J. Med. Chem. 2015, 58:860-877).

[5] = MOLM-13, Table 3 (second study), dose range of 2 nM to 10000 nM

Structure (SMILES)	IC50 [1]	IC50 ([2]; MOLM-13, 96 hours, Table 2 (one study))	IC50 [2, 5]	IC50 [3]	IC50 [4]
CCOc1ccc(-c2ccc(-c3cc(C(=O)O)c4cc(F)ccc4n3)cc2F)cc1 [Cpd1, 2-(4′-ethoxy-2-fluoro-[1,1′-biphenyl]-4-yl)-6-fluoroquinoline-4-carboxylic acid]	14.5 to 19.5 nM	14.5 nM	13 nM	19.5 nM	2.43 nM
CCCCOc1cccc(-c2ccc(-c3cc(C(=O)O)c4cc(F)ccc4n3)cc2F)c1 [Cpd3, 2-(3′-butoxy-2-fluoro-[1,1′-biphenyl]-4-yl)-6-fluoroquinoline-4-carboxylic acid]			16 nM		< 0.5 nM
O=C(O)c1cc(-c2ccc(-c3ccccc3)c(F)c2)nc2ccc(F)cc12 [Cpd4]			41 nM		0.72 nM
O=C(O)c1cc(-c2ccc(-c3ccccc3F)c(F)c2)nc2ccc(F)cc12 [Cpd5, 2-(2,2′-difluoro-[1,1′-biphenyl]-4-yl)-6-fluoroquinoline-4-carboxylic acid]			14 nM		1.66 nM
CCOc1ccc(-c2ccc(-c3cc(C(=O)O)c4cc(F)ccc4n3)c(F)c2)cc1 [Cpd9, 2-(4′-ethoxy-3-fluoro-[1,1′-biphenyl]-4-yl)-6-fluoroquinoline-4-carboxylic acid]					5.5 nM
CCCCOc1cccc(-c2cc(F)c(-c3cc(C(=O)O)c4cc(F)ccc4n3)cc2F)c1 [Cpd11, 2-(3′-butoxy-2,5-difluoro-[1,1′-biphenyl]-4-yl)-6-fluoroquinoline-4-carboxylic acid]					< 0.51 nM
CCCCOc1cccc(-c2ccc(-c3cc(C(=O)O)c4cc(F)ccc4n3)c(F)c2)c1 [Cpd12, 2-(3′-butoxy-3-fluoro-[1,1′-biphenyl]-4-yl)-6-fluoroquinoline-4-carboxylic acid]			< 2 nM		0.7 nM
CCOc1ccc(-c2ccc(-c3cc(C(=O)O)c4cc(F)ccc4n3)cc2C)cc1 [Cpd13, 2-(4′-ethoxy-2-methyl-[1,1′-biphenyl]-4-yl)-6-fluoroquinoline-4-carboxylic acid]			< 2 nM		1.5 nM
CCOc1cccc(-c2ccc(-c3cc(C(=O)O)c4cc(F)ccc4n3)cc2C)c1 [Cpd14]			< 2 nM		1.4 nM
CCOc1ccc(-c2ccc(-c3cc(C(=O)O)c4cc(F)ccc4n3)cc2OC)cc1 [Cpd15, 2-(4′-ethoxy-2-methoxy-[1,1′-biphenyl]-4-yl)-6-fluoroquinoline-4-carboxylic acid]			< 2 nM		4.2 nM
CCOc1ccc(-c2cc(F)c(-c3cc(C(=O)O)c4cc(F)ccc4n3)c(F)c2)cc1 [Cpd17, 2-(4′-ethoxy-3,5-difluoro-[1,1′-biphenyl]-4-yl)-6-fluoroquinoline-4-carboxylic acid]			43 nM		6.2 nM
CCOc1ccc(-c2ccc(-c3cc(C(=O)O)c4cc(F)ccc4n3)c(C)c2)cc1 [Cpd21, 2-(4′-ethoxy-3-methyl-[1,1′-biphenyl]-4-yl)-6-fluoroquinoline-4-carboxylic acid]			538 nM		11.6 nM
CCCCOc1cccc(-c2ccc(-c3cc(C(=O)O)c4cc(F)ccc4n3)c(C)c2)c1 [Cpd22, 2-(3′-butoxy-3-methyl-[1,1′-biphenyl]-4-yl)-6-fluoroquinoline-4-carboxylic acid]			34 nM		< 0.51 nM
CCOc1ccc(-c2ccc(-c3cc(C(=O)O)c4cc(F)ccc4n3)c(OC)c2)cc1 [Cpd23, 2-(4′-ethoxy-3-methoxy-[1,1′-biphenyl]-4-yl)-6-fluoroquinoline-4-carboxylic acid]			532 nM		16 nM
CCOc1ccc(-c2ccc(-c3cc(C(=O)O)c4cc(F)ccc4n3)c(Cl)c2)cc1 [Cpd24, 2-(3-chloro-4′-ethoxy-[1,1′-biphenyl]-4-yl)-6-fluoroquinoline-4-carboxylic acid]			464 nM		22.2 nM
CCCCOc1cccc(-c2ccc(-c3cc(C(=O)O)c4cc(F)ccc4n3)cc2C)c1 [Cpd25, 2-(3′-butoxy-2-methyl-[1,1′-biphenyl]-4-yl)-6-fluoroquinoline-4-carboxylic acid]			< 2 nM		< 0.51 nM
CCCCOc1cccc(-c2ccc(-c3cc(C(=O)O)c4cc(F)ccc4n3)c(OC)c2)c1 [Cpd26, 2-(3′-butoxy-3-methoxy-[1,1′-biphenyl]-4-yl)-6-fluoroquinoline-4-carboxylic acid]			11 nM		0.7 nM
CCCCOc1cccc(-c2ccc(-c3cc(C(=O)O)c4cc(F)ccc4n3)c(Cl)c2)c1 [Cpd27]			16 nM		< 0.51 nM

The remaining lines, values ahead:

IC50 [1]	IC50 ([2]; MOLM-13, 96 hours, Table 2 (one study))	IC50 [2, 5]	IC50 [3]	IC50 [4]	Structure (SMILES)
		16 nM		< 0.5 nM	CCOc1cccc(-c2ccc(-c3cc(C(=O)O)c4cc(F)ccc4n3)cc2F)c1 [Cpd2, 2-(3′-ethoxy-2-fluoro-[1,1′-biphenyl]-4-yl)-6-fluoroquinoline-4-carboxylic acid]
		< 2 nM		1.34 nM	CCNc1ccc(-c2ccc(-c3cc(C(=O)O)c4cc(F)ccc4n3)cc2F)cc1 [Cpd6, 2-(4′-(ethylamino)-2-fluoro-[1,1′-biphenyl]-4-yl)-6-fluoroquinoline-4-carboxylic acid]
		< 2 nM		1.4 nM	CCOc1ccc(-c2cc(F)c(-c3cc(C(=O)O)c4cc(F)ccc4n3)cc2F)cc1 [Cpd7, 2-(4′-ethoxy-2,5-difluoro-[1,1′-biphenyl]-4-yl)-6-fluoroquinoline-4-carboxylic acid]
		< 2 nM		< 0.51 nM	CCOc1cccc(-c2cc(F)c(-c3cc(C(=O)O)c4cc(F)ccc4n3)cc2F)c1 [Cpd8, 2-(3′-ethoxy-2,5-difluoro-[1,1′-biphenyl]-4-yl)-6-fluoroquinoline-4-carboxylic acid]
		< 2 nM		0.7 nM	CCOc1cccc(-c2ccc(-c3cc(C(=O)O)c4cc(F)ccc4n3)c(F)c2)c1 [Cpd10, 2-(3′-ethoxy-3-fluoro-[1,1′-biphenyl]-4-yl)-6-fluoroquinoline-4-carboxylic acid]
		< 2 nM		1.3 nM	CCOc1cccc(-c2ccc(-c3cc(C(=O)O)c4cc(F)ccc4n3)cc2OC)c1 [Cpd16, 2-(3′-ethoxy-2-methoxy-[1,1′-biphenyl]-4-yl)-6-fluoroquinoline-4-carboxylic acid]
		< 2 nM		1.2 nM	CCOc1cccc(-c2cc(F)c(-c3cc(C(=O)O)c4cc(F)ccc4n3)c(F)c2)c1 [Cpd18]
		< 2 nM		1.1 nM	CCOc1ccc(-c2ccc(-c3cc(C(=O)O)c4cc(F)ccc4n3)cc2Cl)cc1 [Cpd19, 2-(2-chloro-4′-ethoxy-[1,1′-biphenyl]-4-yl)-6-fluoroquinoline-4-carboxylic acid]
		< 2 nM		0.6 nM	CCOc1cccc(-c2ccc(-c3cc(C(=O)O)c4cc(F)ccc4n3)cc2Cl)c1 [Cpd20, 2-(2-chloro-3′-ethoxy-[1,1′-biphenyl]-4-yl)-6-fluoroquinoline-4-carboxylic acid]

From patent US20240018108A1, “METHODS AND COMPOSITIONS FOR INHIBITION OF DIHYDROOROTATE DEHYDROGENASE” (OHIO STATE INNOVATION FOUNDATION, priority 2019, published 2024)
